# Laboratory results from patent US5387602A, “1.5-diphenyl-3-(N-hydroxycarbamoyloxyalkyl)pyrazoles” (Ortho Pharmaceutical Corporation, priority 1993, dated 1995).
# Tested on: 5-LO (LTB4) in dog whole blood
# Assay: Procedure IV: ex vivo eicosanoid synthesis in dog whole blood after oral dosing, 5-LO
# Conditions: Canis lupus familiaris, 1 MPK, 2 hours, read-out: % INHIB/HOURS 5-LO (Proc. IV)
# Protocol: (§1) Ex Vivo eicosanoid synthesis in dog whole blood. Adult beagle or mongrel dogs (10-15 kg) of either sex were fasted overnight prior to the initiation of each experiment. The forelimb was clipped and swabbed with an alcohol prep (70% isopropanol). Blood was drawn by venipuncture into syringes containing lithium heparin (Starstead, Newton N.C.) immediately prior to administration of compound or vehicle and then at various intervals following dosing. The test compound was administered orally as a suspension in 0.5% methocel. At various times after dosing, blood samples were drawn and placed on an electric rocker platform to assure complete and continuous mixing. White blood cell (wbc) counts were performed using a Sysmex hematology analyzer. This was done in an effort to normalize the number of leukocytes to be stimulated with calcium ionophore. A 1.0 mL aliquot of whole blood was challenged with 50 μL of a 2.6×10^-5 M solution of calcium ionophore A23187 (Calbiochem, La Jolla, Calif.) prepared in DMSO and diluted in HBSS. After a 15 minute incubation at 37° C., the reaction was stopped by placing the samples in an ice bath (4° C.) for 5 minutes and then centrifuged at 11,000×g for 5 minutes to separate the plasma fraction from blood cells. The plasma fraction was removed, diluted in an appropriate buffer, and analyzed for the presence of LTB4 and prostaglandin F2a or TxB2 by standard RIA techniques.
# (§2) In the following tables, the superscripts indicate the number of experiments and, unless otherwise stated, the dose at which % inhibition is reported is 3 MPK.
row,SMILES,inhibition at 1 mg/kg
1,COc1ccc(-n2nc(COC(=O)N(O)C(C)C)cc2-c2ccc(C)cc2)cc1 [1-L],22%
2,COc1ccc(-n2nc(COC(=O)N(O)C(C)C)c(Cl)c2-c2ccc(C)cc2)cc1 [1-R],6%

# Same assay, conditions: Canis lupus familiaris, 2.5 MPK, 6 hours, read-out: % INHIB/HOURS 5-LO (Proc. IV)
row,SMILES,inhibition at 2.5 mg/kg
1,COc1ccc(-n2nc(CCOC(=O)N(C)O)cc2-c2ccc(Cl)cc2)cc1 [2-A],0%

# Same assay, conditions: Canis lupus familiaris, 3 MPK, 2 hours, read-out: % INHIB/HOURS 5-LO (Proc. IV)
row,SMILES,inhibition at 3 mg/kg
1,COc1ccc(-n2nc(COC(=O)N(C)O)cc2-c2ccc(C)cc2)cc1 [1-K],21%

# Same assay, conditions: Canis lupus familiaris, 5 MPK, 2 hours, read-out: % INHIB/HOURS 5-LO (Proc. IV)
row,SMILES,inhibition at 5 mg/kg
1,COc1ccc(-n2nc(COC(=O)NO)c(Cl)c2-c2ccc(C)cc2)cc1 [1-P],27%
2,COc1ccc(-n2nc(CCOC(=O)N(O)C(C)C)cc2-c2ccc(Cl)cc2)cc1 [2-B],0%
3,COc1ccc(-n2nc(CCOC(=O)N(O)C(C)C)c(Cl)c2-c2ccc(Cl)cc2)cc1 [2-D],32%
4,COc1ccc(-n2nc(CCCOC(=O)N(C)O)c(Cl)c2-c2ccc(Cl)cc2)cc1 [3-D],1%
5,COc1ccc(-n2nc(CCCOC(=O)N(C)O)c(Br)c2-c2ccc(Cl)cc2)cc1 [3-F],8%

# Same assay, conditions: Canis lupus familiaris, 5 MPK, 4 hours, read-out: % INHIB/HOURS 5-LO (Proc. IV)
row,SMILES,inhibition at 5 mg/kg
1,COc1ccc(-n2nc(CCOC(=O)N(O)C(C)C)c(Cl)c2-c2ccc(C)cc2)cc1 [2-J],26%

# Same assay, conditions: Canis lupus familiaris, 5 MPK, 6 hours, read-out: % INHIB/HOURS 5-LO (Proc. IV)
row,SMILES,inhibition at 5 mg/kg
1,COc1ccc(-n2nc(CCOC(=O)N(C)O)c(Br)c2-c2ccc(Cl)cc2)cc1 [2-E],57%
2,COc1ccc(-n2nc(CCOC(=O)N(C)O)c(Cl)c2-c2ccc(C)cc2)cc1 [2-I],0%
3,COc1ccc(-n2nc(CCCOC(=O)N(C)O)cc2-c2ccc(Cl)cc2)cc1 [3-B],11%

# Same assay, conditions: Canis lupus familiaris, 5 MPK, 24 hours, read-out: % INHIB/HOURS 5-LO (Proc. IV)
row,SMILES,inhibition at 5 mg/kg
1,COc1ccc(-n2nc(CCOC(=O)N(O)C(C)C)c(Br)c2-c2ccc(Cl)cc2)cc1 [2-F],11%
2,COc1ccc(-n2nc(CCCOC(=O)N(O)C(C)C)c(Cl)c2-c2ccc(Cl)cc2)cc1 [3-E],22%

# Same assay, conditions: Canis lupus familiaris, 7.5 MPK, 6 hours, read-out: % INHIB/HOURS 5-LO (Proc. IV)
row,SMILES,inhibition at 7.5 mg/kg
1,COc1ccc(-n2nc(COC(=O)N(O)C(C)C)c(Br)c2-c2ccc(Cl)cc2)cc1 [1-F],38%

# Tested on: CO (prostaglandin F2a or TxB2) in dog whole blood
# Assay: Procedure IV: ex vivo eicosanoid synthesis in dog whole blood after oral dosing, CO
# Conditions: Canis lupus familiaris, 1 MPK, 2 hours, read-out: % INHIB/HOURS CO (Proc. IV)
# Protocol: as §1, §2
row,SMILES,inhibition at 1 mg/kg
1,COc1ccc(-n2nc(COC(=O)N(O)C(C)C)cc2-c2ccc(C)cc2)cc1 [1-L],68%
2,COc1ccc(-n2nc(COC(=O)N(O)C(C)C)c(Cl)c2-c2ccc(C)cc2)cc1 [1-R],7%

# Same assay, conditions: Canis lupus familiaris, 2.5 MPK, 6 hours, read-out: % INHIB/HOURS CO (Proc. IV)
row,SMILES,inhibition at 2.5 mg/kg
1,COc1ccc(-n2nc(CCOC(=O)N(C)O)cc2-c2ccc(Cl)cc2)cc1 [2-A],32%

# Same assay, conditions: Canis lupus familiaris, 3 MPK, 2 hours, read-out: % INHIB/HOURS CO (Proc. IV)
row,SMILES,inhibition at 3 mg/kg
1,COc1ccc(-n2nc(COC(=O)N(C)O)cc2-c2ccc(C)cc2)cc1 [1-K],95%

# Same assay, conditions: Canis lupus familiaris, 5 MPK, 2 hours, read-out: % INHIB/HOURS CO (Proc. IV)
row,SMILES,inhibition at 5 mg/kg
1,COc1ccc(-n2nc(COC(=O)NO)c(Cl)c2-c2ccc(C)cc2)cc1 [1-P],72%
2,COc1ccc(-n2nc(CCOC(=O)N(O)C(C)C)cc2-c2ccc(Cl)cc2)cc1 [2-B],33%
3,COc1ccc(-n2nc(CCOC(=O)N(O)C(C)C)c(Cl)c2-c2ccc(Cl)cc2)cc1 [2-D],41%
4,COc1ccc(-n2nc(CCCOC(=O)N(C)O)c(Cl)c2-c2ccc(Cl)cc2)cc1 [3-D],93%
5,COc1ccc(-n2nc(CCCOC(=O)N(O)C(C)C)c(Cl)c2-c2ccc(Cl)cc2)cc1 [3-E],76%
6,COc1ccc(-n2nc(CCCOC(=O)N(C)O)c(Br)c2-c2ccc(Cl)cc2)cc1 [3-F],45%

# Same assay, conditions: Canis lupus familiaris, 5 MPK, 4 hours, read-out: % INHIB/HOURS CO (Proc. IV)
row,SMILES,inhibition at 5 mg/kg
1,COc1ccc(-n2nc(CCOC(=O)N(O)C(C)C)c(Cl)c2-c2ccc(C)cc2)cc1 [2-J],73%

# Same assay, conditions: Canis lupus familiaris, 5 MPK, 6 hours, read-out: % INHIB/HOURS CO (Proc. IV)
row,SMILES,inhibition at 5 mg/kg
1,COc1ccc(-n2nc(CCOC(=O)N(C)O)c(Br)c2-c2ccc(Cl)cc2)cc1 [2-E],62%
2,COc1ccc(-n2nc(CCOC(=O)N(C)O)c(Cl)c2-c2ccc(C)cc2)cc1 [2-I],0%
3,COc1ccc(-n2nc(CCCOC(=O)N(C)O)cc2-c2ccc(Cl)cc2)cc1 [3-B],94%

# Same assay, conditions: Canis lupus familiaris, 5 MPK, 24 hours, read-out: % INHIB/HOURS CO (Proc. IV)
row,SMILES,inhibition at 5 mg/kg
1,COc1ccc(-n2nc(CCOC(=O)N(O)C(C)C)c(Br)c2-c2ccc(Cl)cc2)cc1 [2-F],42%

# Same assay, conditions: Canis lupus familiaris, 7.5 MPK, 6 hours, read-out: % INHIB/HOURS CO (Proc. IV)
row,SMILES,inhibition at 7.5 mg/kg
1,COc1ccc(-n2nc(COC(=O)N(O)C(C)C)c(Br)c2-c2ccc(Cl)cc2)cc1 [1-F],82%

# Molecular target: T1, 5-LO in intact RBL-1 cells (Rattus norvegicus, UniProt P12527)
# T1 construct: 5-LO and CO in intact RBL-1 cells; endogenous in cells; host or cells: RBL-1 (rat basophilic leukemia cells), intact
# T1 sequence (P12527 1-673): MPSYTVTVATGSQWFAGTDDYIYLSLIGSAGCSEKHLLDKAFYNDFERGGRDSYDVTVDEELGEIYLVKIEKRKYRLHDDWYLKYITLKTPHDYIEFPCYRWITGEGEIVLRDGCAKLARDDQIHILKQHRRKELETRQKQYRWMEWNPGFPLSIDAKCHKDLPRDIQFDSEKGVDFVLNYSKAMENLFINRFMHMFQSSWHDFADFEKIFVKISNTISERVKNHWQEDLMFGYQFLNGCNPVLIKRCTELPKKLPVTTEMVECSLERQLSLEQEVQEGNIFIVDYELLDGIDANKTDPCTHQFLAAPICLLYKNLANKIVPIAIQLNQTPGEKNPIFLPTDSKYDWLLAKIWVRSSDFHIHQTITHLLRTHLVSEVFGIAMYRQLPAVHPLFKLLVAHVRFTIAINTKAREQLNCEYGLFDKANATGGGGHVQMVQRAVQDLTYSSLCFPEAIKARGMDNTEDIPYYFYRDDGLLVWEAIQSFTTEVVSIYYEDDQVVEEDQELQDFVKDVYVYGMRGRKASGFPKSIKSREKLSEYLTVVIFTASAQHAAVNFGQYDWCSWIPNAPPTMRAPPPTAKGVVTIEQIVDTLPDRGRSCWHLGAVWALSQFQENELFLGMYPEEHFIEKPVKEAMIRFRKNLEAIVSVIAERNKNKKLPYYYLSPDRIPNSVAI
# Assay: Procedure III: inhibition of 5-LO in intact RBL-1 cells
# Assay type: cell-based
# Conditions: not given
# Protocol: The ability to inhibit 5-LO and CO in intact RBL-1 cells was also evaluated. RBL-1 cells were maintained in culture in minimal essential medium (Bio*Whittaker, Walkersville, Md.), containing 12.5% fetal calf serum, 10 mg/mL streptomycin, 10 I.U./mL penicillin G, […] gentamycin and 2 mM L-glutamine (Bio*Whittaker, Walkersville, Md.). Cells were collected by centrifugation, washed once in HBSS, and resuspended at a concentration of 1×10^5 cells/mL. Cells were incubated in the presence of vehicle or drug then centrifuged at 800×g for 10 minutes at 4° C. The supernatant was removed by aspiration and the cells were resuspended in 0.5 mL of HBSS. The reaction was started by the addition of 20 μg/mL of calcium ionophore A-23187 (mixed calcium and magnesium salts, Calbiochem, La Jolla, Calif.) and allowed to proceed for 15 minutes, then stopped by plunging the tubes into a slush ice bath. The conversion of AA to 5-LO products was initiated by the addition of 10 μL (50 uCi) of 1-^14 C-AA. Products were isolated by acidification and extraction, followed by thin layer chromatography analysis as described above. Radioactive areas corresponding to authentic 5-LO and CO products were quantitated by the Bioscan 2000 Imaging System.
# as §2
row,IC50,SMILES
1,24200 nM,COc1ccc(-n2nc(COC(=O)NO)cc2-c2ccc(Cl)cc2)cc1 [1-A]
2,6100 nM,COc1ccc(-n2nc(COC(=O)N(C)O)cc2-c2ccc(Cl)cc2)cc1 [1-B]
3,3600 nM,COc1ccc(-n2nc(COC(=O)N(O)C(C)C)c(Br)c2-c2ccc(Cl)cc2)cc1 [1-F]
4,3600 nM,COc1ccc(-n2nc(COC(=O)N(C)O)cc2-c2ccc(C)cc2)cc1 [1-K]
5,3800 nM,COc1ccc(-n2nc(COC(=O)N(O)C(C)C)cc2-c2ccc(C)cc2)cc1 [1-L]
6,17500 nM,COc1ccc(-n2nc(COC(=O)NO)c(Cl)c2-c2ccc(C)cc2)cc1 [1-P]
7,2700 nM,COc1ccc(-n2nc(COC(=O)N(O)C(C)C)c(Cl)c2-c2ccc(C)cc2)cc1 [1-R]
8,1360 nM,COc1ccc(-n2nc(CCOC(=O)N(C)O)cc2-c2ccc(Cl)cc2)cc1 [2-A]
9,1980 nM,COc1ccc(-n2nc(CCOC(=O)N(O)C(C)C)cc2-c2ccc(Cl)cc2)cc1 [2-B]
10,2300 nM,COc1ccc(-n2nc(CCOC(=O)N(O)C(C)C)c(Cl)c2-c2ccc(Cl)cc2)cc1 [2-D]
11,1100 nM,COc1ccc(-n2nc(CCOC(=O)N(C)O)c(Br)c2-c2ccc(Cl)cc2)cc1 [2-E]
12,1600 nM,COc1ccc(-n2nc(CCOC(=O)N(O)C(C)C)c(Br)c2-c2ccc(Cl)cc2)cc1 [2-F]
13,1080 nM,COc1ccc(-n2nc(CCOC(=O)N(C)O)c(Cl)c2-c2ccc(C)cc2)cc1 [2-I]
14,3100 nM,COc1ccc(-n2nc(CCOC(=O)N(O)C(C)C)c(Cl)c2-c2ccc(C)cc2)cc1 [2-J]
15,3210 nM,COc1ccc(-n2nc(CCCOC(=O)N(C)O)cc2-c2ccc(Cl)cc2)cc1 [3-B]
16,820 nM,COc1ccc(-n2nc(CCCOC(=O)N(C)O)c(Cl)c2-c2ccc(Cl)cc2)cc1 [3-D]
17,2800 nM,COc1ccc(-n2nc(CCCOC(=O)N(O)C(C)C)c(Cl)c2-c2ccc(Cl)cc2)cc1 [3-E]
18,2350 nM,COc1ccc(-n2nc(CCCOC(=O)N(C)O)c(Br)c2-c2ccc(Cl)cc2)cc1 [3-F]
